Laboratory results as given in the supplement of paper PMC10307832.

Columns and labels:
Experiment in all cases: relative viability (nuclei count vs DMSO), 5 days (fraction); higher = more cells survive
Vismodegib + Phenformin = compound: CS(=O)(=O)c1ccc(C(=O)Nc2ccc(Cl)c(-c3ccccn3)c2)c(Cl)c1 [Vismodegib] + N=C(N)NC(=N)NCCc1ccccc1 [Phenformin] (partner 250 µM)
Outline: (§1)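 The day after seeding in 1536-well plates, lung cancer cell lines were treated by pin tool with a single drug, or with a fixed anchor-drug dose together with five library-drug doses (not always all listed) in √10 steps. After 5 days, a combined fix-and-stain solution (final 0.05% Triton X-100, 1% formaldehyde, 1 ug/ml Hoechst) was added. Nuclei counted on 4× images gave relative viability as treated counts over vehicle counts, reported as the median of duplicate plates.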

Vismodegib + Tozasertib = compound: CS(=O)(=O)c1ccc(C(=O)Nc2ccc(Cl)c(-c3ccccn3)c2)c(Cl)c1 [Vismodegib] + Cc1cc(Nc2cc(N3CCN(C)CC3)nc(Sc3ccc(NC(=O)C4CC4)cc3)n2)n[nH]1 [Tozasertib] (partner 0.1 µM)
Outline: as §1

VE-821 + Luminespib = compound: CS(=O)(=O)c1ccc(-c2cnc(N)c(C(=O)Nc3ccccc3)n2)cc1 [VE-821] + CCNC(=O)c1noc(-c2cc(C(C)C)c(O)cc2O)c1-c1ccc(CN2CCOCC2)cc1 [Luminespib] (partner 0.01 µM)
Outline: as §1

Vismodegib + AZD7762 = compound: CS(=O)(=O)c1ccc(C(=O)Nc2ccc(Cl)c(-c3ccccn3)c2)c(Cl)c1 [Vismodegib] + NC(=O)Nc1cc(-c2cccc(F)c2)sc1C(=O)N[C@H]1CCCNC1 [AZD7762] (partner 0.2 µM)
Outline: as §1

Cell Line | relative viability (Vismodegib + Phenformin; first compound 0.08 µM) | relative viability (Vismodegib + Phenformin; first compound 0.253 µM) | relative viability (Vismodegib + Phenformin; first compound 0.8 µM) | relative viability (Vismodegib + Phenformin; first compound 2.53 µM) | relative viability (Vismodegib + Phenformin; first compound 8 µM) | relative viability (Vismodegib + Tozasertib; first compound 0.08 µM) | relative viability (Vismodegib + Tozasertib; first compound 0.253 µM) | relative viability (Vismodegib + Tozasertib; first compound 0.8 µM) | relative viability (Vismodegib + Tozasertib; first compound 2.53 µM) | relative viability (Vismodegib + Tozasertib; first compound 8 µM) | relative viability (VE-821 + Luminespib; first compound 0.08 µM) | relative viability (VE-821 + Luminespib; first compound 0.253 µM) | relative viability (VE-821 + Luminespib; first compound 0.8 µM) | relative viability (VE-821 + Luminespib; first compound 2.53 µM) | relative viability (VE-821 + Luminespib; first compound 8 µM) | relative viability (Vismodegib + AZD7762; first compound 0.08 µM) | relative viability (Vismodegib + AZD7762; first compound 0.253 µM) | relative viability (Vismodegib + AZD7762; first compound 0.8 µM) | relative viability (Vismodegib + AZD7762; first compound 2.53 µM) | relative viability (Vismodegib + AZD7762; first compound 8 µM)
NCI-H1651 | 0.353 | 0.336 | 0.365 | 0.343 | 0.327 | 0.617 | 0.704 | 0.643 | 0.604 | 0.704 | 0.907 | 0.819 | 0.63 | 1.16 | 0.679 | 0.512 | 0.454 | 0.535 | 0.36 | 0.433
NCI-H1666 | 0.557 | 0.587 | 0.535 | 0.517 | 0.565 | 0.564 | 0.684 | 0.591 | 0.585 | 0.7 | 1.04 | 1.01 | 1.1 | 1.03 | 0.761 | 0.878 | 0.772 | 0.882 | 0.751 | 0.827
NCI-H1734 | 0.384 | 0.316 | 0.396 | 0.322 | 0.384 | 0.249 | 0.281 | 0.267 | 0.263 | 0.263 | 0.199 | 0.197 | 0.208 | 0.165 | 0.193 | 0.575 | 0.447 | 0.552 | 0.556 | 0.488
NCI-H1755 | 0.596 | 0.61 | 0.611 | 0.617 | 0.598 | 0.568 | 0.575 | 0.534 | 0.556 | 0.524 | 0.514 | 0.344 | 0.427 | 0.468 | 0.201 | 0.453 | 0.568 | 0.515 | 0.449 | 0.41
NCI-H1793 | – | 0.36 | 0.358 | 0.365 | 0.375 | – | 0.336 | 0.393 | 0.269 | 0.279 | 0.155 | 0.234 | 0.175 | 0.162 | 0.121 | – | 0.569 | 0.409 | 0.389 | 0.327
NCI-H1915 | 0.368 | 0.359 | 0.381 | 0.355 | 0.357 | 0.431 | 0.386 | 0.466 | 0.413 | 0.414 | 0.816 | 0.752 | 0.698 | 0.726 | 0.525 | 0.724 | 0.667 | 0.714 | 0.716 | 0.749
NCI-H1944 | 0.192 | 0.207 | 0.205 | 0.197 | 0.216 | 0.261 | 0.285 | 0.26 | 0.269 | 0.232 | 0.835 | 0.698 | 0.421 | 0.803 | 0.416 | 0.492 | 0.557 | 0.408 | – | 0.505
NCI-H1975 | 0.402 | 0.408 | 0.398 | 0.424 | 0.389 | 0.892 | 0.744 | 0.733 | 0.643 | 0.261 | 0.213 | 0.197 | 0.26 | 0.193 | 0.193 | 0.689 | 0.649 | 0.642 | 0.729 | 0.631
NCI-H1993 | 0.448 | 0.531 | 0.519 | 0.514 | 0.498 | 0.529 | 0.548 | 0.584 | 0.632 | 0.593 | 1.1 | 0.857 | 0.67 | 0.655 | 0.704 | 0.751 | 0.912 | 0.84 | 0.768 | 0.712
NCI-H2085 | 0.698 | 0.749 | 0.714 | 0.718 | 0.697 | 0.835 | 0.849 | 0.85 | 0.698 | 0.621 | 0.439 | 0.457 | 0.385 | 0.411 | 0.309 | 0.972 | 0.972 | 1.11 | 0.997 | 0.914
NCI-H2087 | 0.45 | 0.445 | 0.427 | 0.45 | 0.399 | 0.258 | 0.306 | 0.212 | 0.185 | 0.234 | 0.133 | 0.176 | 0.206 | 0.144 | 0.131 | 1.28 | 1.14 | 1.14 | 1.33 | 1.36
NCI-H2126 | 0.529 | 0.517 | 0.482 | 0.493 | 0.506 | 0.841 | 0.814 | 0.849 | 0.772 | 0.794 | 0.908 | 0.826 | 0.807 | 0.782 | 0.469 | 1.08 | 0.912 | 0.978 | 0.933 | 1.03
NCI-H2170 | 0.416 | 0.409 | 0.444 | 0.433 | 0.39 | 0.733 | 0.664 | 0.673 | 0.675 | 0.743 | 0.754 | 0.623 | 0.769 | 0.585 | 0.555 | 0.913 | 0.838 | 0.974 | 0.866 | 0.909
NCI-H2342 | 0.632 | 0.612 | 0.581 | 0.475 | 0.529 | 0.508 | 0.492 | 0.477 | 0.511 | 0.461 | 0.8 | 0.65 | 0.552 | 0.708 | 0.717 | 0.576 | 0.479 | 0.633 | 0.362 | 0.416
NCI-H2347 | 0.336 | 0.477 | 0.448 | 0.361 | 0.464 | 0.589 | 0.574 | 0.554 | 0.485 | 0.574 | 0.399 | 0.418 | 0.238 | 0.505 | 0.582 | 0.774 | 0.718 | 0.782 | 0.83 | 0.799
NCI-H2405 | 0.336 | 0.386 | 0.381 | 0.381 | 0.39 | 0.705 | 0.733 | 0.7 | 0.709 | 0.765 | 0.758 | 0.735 | 0.437 | 0.712 | 0.594 | 0.739 | 0.711 | 0.637 | 0.706 | 0.73
